ChEMBL document CHEMBL4725403, “Improved design of peptides exhibiting angiogenic activities for clinical applications” (Bioorg Med Chem, 2020)
Activity calls are given as the source filed them. The rule behind the calls is not given here. Where a SMILES comes first, the peptide text is derived from it. Bridges are numbered along the chain shown (N, C = ends). [ ]: non-standard residue; d: D form. AEEA = NCCOCCOCC(=O)O

Experiments:
[1] = Stability of compound in HUVEC cell lysates assessed as parent compound remaining after 6 hrs by HPLC-MS; assay type: ADME, subcellular; conditions: human; for Stabilty: huvec, 6 h
[2] = system: HUVEC; assay: Induction of angiogenesis in HUVEC assessed as tube formation at 2 ug/ml after 18 hrs by inverted microscopy; assay type: functional; conditions: Homo sapiens, dose 2.0 µg/ml
[3] = system: HUVEC; assay: Induction of angiogenesis in HUVEC assessed as tube formation at 2 ug/ml after 2 hrs by inverted microscopy; assay type: functional; conditions: Homo sapiens, dose 2.0 µg/ml
[4] = Stability of compound in human serum assessed as parent compound remaining after 6 hrs by HPLC-MS; assay type: ADME, cell-free; conditions: for Stabilty: 6 h
[5] = system: HUVEC; assay: Induction of angiogenesis in HUVEC assessed as tube formation at 2 ug/ml upto 24 hrs by inverted microscopy; assay type: functional; conditions: Homo sapiens, dose 2.0 µg/ml

| Stabilty [1] | Stabilty [4] | remaining at 6 h ([4]; read-out: Stabilty) [%] | remaining at 6 h ([1]; HUVEC cell lysates, read-out: Stabilty) [%] | Molecule | Activity [2] | Activity [3] | Activity [5] |
| --- | --- | --- | --- | --- | --- | --- | --- |
| Unstable |  | 80 |  | CC(C)C[C@@H]1NC(=O)CNC(=O)[C@H](Cc2ccccc2)NC(=O)[C@H](C(C)C)NC(=O)[C@H](C(C)C)NC(=O)[C@H](CO)NC(=O)COCCOCCNC(=O)CC[C@@H](C(N)=O)NC(=O)[C@H](CCCNC(=N)N)NC1=O ([AEEA]SVVFGLRE-NH2; lactam N-9) | Active | Active |  |
| Stable | Stable |  |  | CC(C)C[C@@H]1NC(=O)CNC(=O)[C@H](Cc2ccccc2)NC(=O)[C@H](C(C)C)NC(=O)[C@H](C(C)C)NC(=O)[C@H](CO)NC(=O)COCCOCCNC(=O)[C@@H](N)CSSC[C@@H](C(N)=O)NC(=O)CNC(=O)[C@H](CCCNC(=N)N)NC1=O | Active | Active | Active |
|  | Unstable |  | 50 | H-SVVFGLR-NH2 | Active | Active |  |

Second part, the molecule before the results:

| Molecule | Stabilty [1] | Stabilty [4] | remaining at 6 h ([4]; read-out: Stabilty) [%] | remaining at 6 h ([1]; HUVEC cell lysates, read-out: Stabilty) [%] | Activity [2] | Activity [3] | Activity [5] |
| --- | --- | --- | --- | --- | --- | --- | --- |
| CC(C)C[C@@H]1NC(=O)CNC(=O)[C@H](Cc2ccccc2)NC(=O)[C@H](C(C)C)NC(=O)[C@H](C(C)C)NC(=O)[C@H](CO)NC(=O)COCCOCCNC(=O)[C@H](N)CSSC[C@H](C(N)=O)NC(=O)CNC(=O)[C@H](CCCNC(=N)N)NC1=O | Stable | Stable |  |  | Active | Active |  |
| CC(C)C[C@H](NC(=O)CNC(=O)[C@H](Cc1ccccc1)NC(=O)[C@@H](NC(=O)[C@@H](NC(=O)[C@H](CO)NC(=O)COCCOCCN)C(C)C)C(C)C)C(=O)N[C@@H](CCCNC(=N)N)C(N)=O (H-[AEEA]SVVFGLR-NH2) | Stable |  |  |  |  |  |  |
